Test results: patent US8940310B2, “Methods of treatment using TLR7 and/or TLR9 inhibitors” (Dynavax Technologies Corporation, priority 2010, dated 2015)
[I] = hypoxanthine (inosine)

Tests used:
PDC = conditions: in vitro, with GC
TLR7 = biological target: T1, TLR7 (Homo sapiens, UniProt Q9NYK1); assay type: cell-based
T1 construct: endogenous in cells; host or cells: primary human plasmacytoid dendritic cells from blood donors
T1 sequence (Q9NYK1 27-1049): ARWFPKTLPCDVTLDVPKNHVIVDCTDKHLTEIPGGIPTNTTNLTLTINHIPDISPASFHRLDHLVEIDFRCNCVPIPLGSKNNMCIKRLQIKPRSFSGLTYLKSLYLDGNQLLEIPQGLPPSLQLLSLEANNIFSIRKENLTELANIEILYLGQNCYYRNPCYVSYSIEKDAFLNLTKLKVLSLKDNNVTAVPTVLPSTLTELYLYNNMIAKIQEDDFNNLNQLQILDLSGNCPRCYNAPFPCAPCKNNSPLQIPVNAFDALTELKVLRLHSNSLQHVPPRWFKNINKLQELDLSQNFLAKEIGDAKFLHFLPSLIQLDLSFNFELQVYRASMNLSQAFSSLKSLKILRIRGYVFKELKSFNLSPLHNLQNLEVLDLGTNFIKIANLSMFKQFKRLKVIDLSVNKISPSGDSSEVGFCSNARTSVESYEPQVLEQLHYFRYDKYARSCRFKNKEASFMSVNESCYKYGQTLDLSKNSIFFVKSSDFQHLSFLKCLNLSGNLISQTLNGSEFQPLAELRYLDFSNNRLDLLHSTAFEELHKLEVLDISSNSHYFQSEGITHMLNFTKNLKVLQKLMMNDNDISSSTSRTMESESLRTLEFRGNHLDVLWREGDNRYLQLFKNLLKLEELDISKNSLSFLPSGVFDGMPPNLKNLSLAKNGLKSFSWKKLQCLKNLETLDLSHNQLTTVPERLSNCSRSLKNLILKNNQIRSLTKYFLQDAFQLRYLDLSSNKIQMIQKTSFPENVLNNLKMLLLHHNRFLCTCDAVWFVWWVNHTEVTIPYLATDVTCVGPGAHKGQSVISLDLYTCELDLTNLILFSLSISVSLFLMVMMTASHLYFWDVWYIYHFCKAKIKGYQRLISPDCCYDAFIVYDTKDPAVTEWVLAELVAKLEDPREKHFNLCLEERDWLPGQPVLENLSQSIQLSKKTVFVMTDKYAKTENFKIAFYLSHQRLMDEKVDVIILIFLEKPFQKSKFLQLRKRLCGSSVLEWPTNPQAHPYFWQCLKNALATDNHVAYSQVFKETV

Question: “5′-TGCTCCTGGAGGGGTTGT-3′ (DNA, backbone not given here) [SEQ ID NO:42]” was tested. Which “GC sensitivity of TLR7/9-stimulated PDC” value (PDC) did it give?
Answer: restored GC sensitivity to PDC

Question: What does the source list for “5′-TGC TCC TGG AGI GGT TGT-3′ (DNA TGCTCCTGGAGNGGTTGT; DNA, [I] at 12, backbone and methylation of C not given here) [SEQ ID NO:73]”?
Answer: IC50 (TLR7; read-out: IC50, IFN-α, FLU): 13 nM; IC90 (TLR7; read-out: IC90, IFN-α, FLU): 101 nM
